Reference: patent US20030236212A1, “Functionalized long chain derivatives as acyl coenzyme-A mimics, compositions thereof, and methods of cholesterol management and related uses” (priority 2002, published 2003)
Where two headings read alike, the source gives them in different places.

How the values were obtained:
primary rat hepatocytes = test: Synthesis of total lipids (14C-acetate labeling) in primary rat hepatocytes; type: cell-based; details: for IC50: Rattus norvegicus, Hepatocyte, read-out: IC50, inhibition of lipid synthesis in primary hepatocytes
Experimental: A male Sprague-Dawley rate was anesthetized by administration of sodium pentobarbitol by intraperitoneal at 80 mg/kg. In situ perfusion of the liver was performed as follows. The abdomen of the animal was opened, the portal vein canulated, and the liver perfused with WOSH solution (149 mM NaCl, 9.2 mM Na HEPES, 1.7 mM Fructose, 0.5 mM EGTA, 0.029 mM Phenol red, 10 U/ml heparin, pH 7.5) at a flow rate of 30 ml/min for 6 minutes. To digest the liver, DSC solution (6.7 mM KCl, 143 mM NaCl, 9.2 mM Na HEPES, 5 mM CaCl2-2H2O, 1.7 mM Fructose, 0.029 mM Phenol red, 0.2% BSA, 100 U/ml collagenase Type 1,160 BAEE/ml trypsin inhibitor, pH 7.5) was perfused through the liver at a flow rate of 30 ml/min for 6 minutes at a temperature of 37° C. After digestion, cells were dispersed in a solution of DMEM-(DMEM containing 2 mM GlutMax-1, 0.2% BSA, 5% FBS, 12 nM insulin, 1.2 μM hydrocortisone) to stop the digestion process. The crude cell suspension was filtered through three layers of stainless steel mesh with pore sizes of 250, 106, and 75 μm respectively. Filtered cells were centrifuged at 50×g for two minutes and the supernatant discarded. The resulting cell pellet was resuspended in DMEM and centrifuged again. This final cell pellet was resuspended in DMEM+HS solution (DMEM containing 2 mM GlutMax-1, 20 mM delta-aminolevulinic acid, 17.4 mM MEM nonessential amino acids, 20% FBS, 12 nM insulin, 1.2 μM hydrocortisone) and plated to form monolayer cultures at a density of 100×10^3 cells/cm^2 on collagen coated culture dishes.
To test the effect of an illustrative compound of the invention on synthesis rates of total lipids, the monolayer cultures were exposed to 1, 3, 10, 30, 100, or 300 μM of Compound A or 10 μM of Compound 1 in DMEM+containing 1 μCi/ml 14C-acetate, D-glucose, hepes, glutamine, leucine, alanine, lactate, pyruvate, non-essential amino acids, BSA, and gentamicine. Control cells were exposed to the same media lacking lovastatin or the test compounds. All cells were exposed to 0.1% DMSO. Metabolic labeling with ^14C-acetate continued for 4 hr at 37° C. After labeling, cells were washed twice with 1 mL of PBS followed by addition of scintallant (Microscent E) and counted on Topcount®.

obese female Zucker rats = test: Oral daily treatment of obese female Zucker rats for 14 days (body weight, serum lipids, glucose, insulin); type: in vivo, rat; design: HDL-C / Glucose / Insulin / NEFA / BHA / TG / TC / Non HDL-C: unit not given here; details: for change in vivo at 10 mg/kg/day / change in vivo at 10 mg/kg / change in vivo at 30 mg/kg/day / change in vivo at 30 mg/kg / change in vivo at 100 mg/kg/day / change in vivo at 100 mg/kg: Rattus norvegicus, 336 h, oral daily, fourteen days; for change in vivo at 10 mg/kg/day / change in vivo at 30 mg/kg/day / change in vivo at 100 mg/kg/day: read-out: % wt. gain; for change in vivo at 10 mg/kg/day / change in vivo at 10 mg/kg: 10 mg/kg/day; for change in vivo at 30 mg/kg/day / change in vivo at 30 mg/kg: 30 mg/kg/day; for change in vivo at 100 mg/kg/day / change in vivo at 100 mg/kg: 100 mg/kg/day
Experimental: The dosing vehicle was administered to control animals in parallel experiments.
Body weight was determined daily prior to dosing. Animals were allowed free access to rodent chow and water throughout the study. Blood glucose was determined after a 6-hour fast in the afternoon without anesthesia from a tail vein. Serum was also prepared from a blood sample subsequently obtained from the orbital venous plexus (with O2/CO2 anesthesia) prior to and after one week treatment and used lipid and insulin determinations. At two weeks, blood glucose was again determined after a 6-hour fast without anesthesia from a tail vein. Soon thereafter, animals were sacrificed by CO2 inhalation in the afternoon and cardiac blood serum was collected and assessed for various lipids and insulin.

[1] = obese female Zucker rats, oral gavage daily 14 days, 5 mg/kg
[2] = obese female Zucker rats, oral, 14 days, 100 mg/kg/day (Table 1)
[3] = obese female Zucker rats, read-out: BHA, Percent Change from Pre-treatment
[4] = obese female Zucker rats, read-out: Glucose, Percent Change from Pre-treatment
[5] = obese female Zucker rats, read-out: HDL-C, Percent Change from Pre-treatment
[6] = obese female Zucker rats, read-out: Insulin, Percent Change from Pre-treatment
[7] = obese female Zucker rats, read-out: NEFA, Percent Change from Pre-treatment
[8] = obese female Zucker rats, read-out: Non HDL-C, Percent Change from Pre-treatment
[9] = obese female Zucker rats, read-out: TC, Percent Change from Pre-treatment
[10] = obese female Zucker rats, read-out: TG, Percent Change from Pre-treatment

## CC(C)(CCCCOCCCCC(C)(C)COP(=O)(O)O)COP(=O)(O)O
Primary rat hepatocytes
  IC50: 43 µM

## CC(C)(CCCCC(=O)CCCCC(C)(C)COP(=O)(O)O)COP(=O)(O)O
Primary rat hepatocytes
  IC50: 16 µM

## CC(C)(CCCCCOCCCCCC(C)(C)COP(=O)(O)O)COP(=O)(O)O
Primary rat hepatocytes
  IC50: 28 µM

## CC(C)(CCCCCC(=O)CCCCCC(C)(C)COP(=O)(O)O)COP(=O)(O)O
Primary rat hepatocytes
  IC50: 35 µM

## CC(C)(CO)CCCCOCCCCC(C)(C)CO [Compound 1, bis(6-Hydroxy-5,5-dimethylhexyl)ether, reference compound]
Primary rat hepatocytes; rat hepatocyte cells, 10 μM, 14C-acetate 4 hr, vs vehicle control
  reduction of rates of total lipid synthesis: at least 65%
Obese female Zucker rats; fasted obese female Zucker rats, oral gavage daily 14 days, 5 mg/kg
  blood glucose levels: reduction
Obese female Zucker rats; fasted obese female Zucker rats, two weeks of treatment, 5 mg/kg
  serum insulin relative to pretreatment: increased
Obese female Zucker rats; [1]
  liver to body weight: increased
  serum total cholesterol: only modestly elevated
  weight gain, percent of initial weight after two weeks: 1.5%
Obese female Zucker rats; [2]
  BHA: 1.6 ± 0.3
  Glucose: −25.3 ± 7.2
  HDL-C: 113.9 ± 26.4
  Insulin: 42.1 ± 23
  NEFA: 0.056 ± 0.002
  Non HDL-C: −26.9 ± 9.3
  TC: −82.5 ± 3.6
  TG: 468.8 ± 139.7

## CC(C)(CCCCC(=O)CCCCC(C)(C)COP(=O)(O)O)COP(=O)(O)O.N.N [Compound D, Phosphoric Acid mono-(2,2,12,12-tetramethyl-7-oxo-13-phosphonooxytridecyl) ester, diammonium salt]
Obese female Zucker rats; obese female Zucker rats
  change in vivo at 10 mg/kg/day: 12%
  change in vivo at 30 mg/kg/day: 9%
  change in vivo at 100 mg/kg/day: 8%
Obese female Zucker rats; [3]
  change in vivo at 10 mg/kg: 123%
  change in vivo at 30 mg/kg: 271%
  change in vivo at 100 mg/kg: 814%
Obese female Zucker rats; [4]
  change in vivo at 10 mg/kg: -5%
  change in vivo at 30 mg/kg: -4%
  change in vivo at 100 mg/kg: -3%
Obese female Zucker rats; [5]
  change in vivo at 10 mg/kg: 5%
  change in vivo at 30 mg/kg: 28%
  change in vivo at 100 mg/kg: 57%
Obese female Zucker rats; [6]
  change in vivo at 10 mg/kg: 4%
  change in vivo at 30 mg/kg: 2%
  change in vivo at 100 mg/kg: 14%
Obese female Zucker rats; [7]
  change in vivo at 10 mg/kg: -13%
  change in vivo at 30 mg/kg: -25%
  change in vivo at 100 mg/kg: -22%
Obese female Zucker rats; [8]
  change in vivo at 10 mg/kg: 25%
  change in vivo at 30 mg/kg: 22%
  change in vivo at 100 mg/kg: 71%
Obese female Zucker rats; [9]
  change in vivo at 10 mg/kg: 8%
  change in vivo at 30 mg/kg: 21%
  change in vivo at 100 mg/kg: 55%
Obese female Zucker rats; [10]
  change in vivo at 10 mg/kg: 11%
  change in vivo at 30 mg/kg: -12%
  change in vivo at 100 mg/kg: -1%
other
  melting point: 191 to 193 °C

## CC(C)(CCCCCC(=O)CCCCCC(C)(C)COP(=O)(O)O)COP(=O)(O)O.N.N [Compound E, Phosphoric Acid mono-(2,2,14,14-tetramethyl-8-oxo-15-phosphonooxy-pentadecyl) Ester, Diammonium Salt]
Obese female Zucker rats; obese female Zucker rats
  change in vivo at 10 mg/kg/day: 11%
  change in vivo at 30 mg/kg/day: 10%
  change in vivo at 100 mg/kg/day: 4%
Obese female Zucker rats; [3]
  change in vivo at 10 mg/kg: 140%
  change in vivo at 30 mg/kg: 73%
  change in vivo at 100 mg/kg: 134%
Obese female Zucker rats; [4]
  change in vivo at 10 mg/kg: -6%
  change in vivo at 30 mg/kg: -1%
  change in vivo at 100 mg/kg: -4%
Obese female Zucker rats; [5]
  change in vivo at 10 mg/kg: 129%
  change in vivo at 30 mg/kg: 174%
  change in vivo at 100 mg/kg: 246%
Obese female Zucker rats; [6]
  change in vivo at 10 mg/kg: 25%
  change in vivo at 30 mg/kg: -12%
  change in vivo at 100 mg/kg: -15%
Obese female Zucker rats; [7]
  change in vivo at 10 mg/kg: -5%
  change in vivo at 30 mg/kg: -28%
  change in vivo at 100 mg/kg: -40%
Obese female Zucker rats; [8]
  change in vivo at 10 mg/kg: 6%
  change in vivo at 30 mg/kg: 51%
  change in vivo at 100 mg/kg: 20%
Obese female Zucker rats; [9]
  change in vivo at 10 mg/kg: 3%
  change in vivo at 30 mg/kg: 126%
  change in vivo at 100 mg/kg: 161%
Obese female Zucker rats; [10]
  change in vivo at 10 mg/kg: 39%
  change in vivo at 30 mg/kg: -2%
  change in vivo at 100 mg/kg: -51%
other
  melting point: 187 to 189 °C

## CC(=O)C(CCCCC(C)(C)CO)CCCCC(C)(C)CO [Compound G, 9-Hydroxy-3-(6-hydroxy-5,5-dimethylhexyl)-8,8-dimethylnonan-2-one]
other
  melting point: 178 to 180 °C

## CC(C)(CO)CCCCN(O)CCCCC(C)(C)CO [Compound I]
other
  melting point: 73 °C

## CC(=O)C(CCCCC(C)(C)CO)CCCCC(C)(C)CO [drawing 124]
Primary rat hepatocytes
  IC50: 62 µM

## CC(C)(CO)CCCCN(O)CCCCC(C)(C)CO [drawing 125]
Primary rat hepatocytes
  IC50: 64 µM

## CC(C)(CO)CCCCOC(=O)CCCCC(C)(C)CO [drawing 126]
Primary rat hepatocytes
  IC50: 14 µM
